From EP4512427A1, “ANTIBODY-DRUG CONJUGATES BASED ON MOLECULAR GLUE DEGRADERS AND USES THEREOF” (Mablink Bioscience, priority 2023, dated 2025)

Legend:
340 protein kinases = assay: Kinase screening assay (radiometric 33PanQinase); assay type: biochemical, human; settings: 10 µM; most inhibited kinases: CMGC family, particularly CDKs (23 out of the 30 most inhibited were CDK/Cyclin complexes)
Method: Compound 2384 according to the disclosure was subjected to kinase screening assays (performed at Reaction Biology, Germany). The screening assay was performed at a final compound concentration of 10 µM. A radiometric protein kinase assay (33PanQinase® ActivityAssay) was used for measuring the kinase activity of 340 protein kinases. All kinase assays were performed in 96-well FlashPlates™ from Perkin Elmer (Boston, MA, USA) in a 50 µL reaction volume. […] All PKC assays (except the PKC-mu and the PKC-nu assay) additionally contained 1 mM CaCl2, 4 mM EDTA, 5 µg/m! Phosphatidylserine and 1 µg/m! 1,2-Dioleyl-glycerol. The CAMK1D, CAMK2A, CAMK2B, CAMK2D, CAMK2G, CAMK4, CAMKK1, CAMKK2, DAPK2, EEF2K, MYLK, MYLK2 and MYLK3 assays additionally contained 1 µg/ml Calmodulin and 0.5 mM CaCl2. The PRKG1 and PRKG2 assays additionally contained 1 µM cGMP. The DNA-PK assay additionally contained 2.5 µg/ml DNA. The protein kinase reaction cocktails were incubated at 30°C for 60 minutes. The reaction was stopped with 50 µl of 2 % (v/v) H3PO4, plates were aspirated and washed two times with 200 µL 0.9 % (w/v) NaCl. Incorporation of 33Pi (counting of "cpm") was determined with a microplate scintillation counter (Microbeta, Wallac). All protein kinase assays were performed with a BeckmanCoulter Biomek 2000/SL robotic system. […]

BCRP = biological target: T1, BCRP (Homo sapiens, UniProt Q9UNQ0); assay: BCRP efflux substrate assay in MDCK-BCRP; assay type: in vitro ADME; settings: dog, pH 7.4, MDCK-BCRP
T1 construct: host or cells: MDCK-BCRP (Preadyport)
T1 sequence (Q9UNQ0 1-655): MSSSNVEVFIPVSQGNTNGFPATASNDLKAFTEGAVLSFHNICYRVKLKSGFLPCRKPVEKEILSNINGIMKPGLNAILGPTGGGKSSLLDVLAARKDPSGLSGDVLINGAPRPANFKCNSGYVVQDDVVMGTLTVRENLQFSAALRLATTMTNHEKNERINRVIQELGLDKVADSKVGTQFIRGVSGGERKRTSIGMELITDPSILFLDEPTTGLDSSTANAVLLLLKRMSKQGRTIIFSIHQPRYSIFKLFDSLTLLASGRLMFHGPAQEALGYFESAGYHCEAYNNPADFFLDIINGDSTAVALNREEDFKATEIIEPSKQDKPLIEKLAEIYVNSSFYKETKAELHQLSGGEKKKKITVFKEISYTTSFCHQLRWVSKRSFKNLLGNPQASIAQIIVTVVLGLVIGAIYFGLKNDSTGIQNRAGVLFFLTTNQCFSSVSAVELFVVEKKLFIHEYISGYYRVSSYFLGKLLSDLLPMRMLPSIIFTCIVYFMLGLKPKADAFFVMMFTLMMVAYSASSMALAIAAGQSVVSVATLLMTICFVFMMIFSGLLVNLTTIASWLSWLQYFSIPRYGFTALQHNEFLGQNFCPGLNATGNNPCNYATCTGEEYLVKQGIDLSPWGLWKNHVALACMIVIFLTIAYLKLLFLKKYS
Method: MDR1 and BCRP efflux substrate assays were conducted in MDCK-MDR1 and MDCK-BCRP in vitro models (Preadyport™, Solvo Biotech) at Symeres (Nederland). Compound of the invention (donor well concentration of 5µM) were incubated in cell monolayer 24-transwell Preadyport system, using Preadyport recommended pH 7.4 assay buffer (donor and receiver wells). After 60 min of incubation (no shaking), samples are collected and suspended into triple volume of 66% cold acetonitrile. Samples are stored at -20°C until thawed, centrifuged and analyzed by LC-MS. Quinidine was used a positive control for the MDR1 assay, and prazosin was used as a positive control for the BCRP assay. Exatecan was used as a control, known not to be an MDR1 substrate. Residual DMSO content from compounds stock solutions was below 1% (v/v). The assay was performed in duplicate. The quantification of test compounds in donor or receptor compartment is conducted using relative LC/MS peak areas (samples of initial incubation solutions are used as a single point calibrator), without any spiked standard samples. The data is used for estimating apparent permeability (Papp) and calculation of efflux ratio.

CycK mRNA = CycK mRNA by RT-qPCR; assay type: cell-based, human; settings: JIMT-1 cells, 1µM, 2h
Method: 1×10^6 JIMT-1 cells were plated in 3mL of DMEM/FBS 90:10 (v/v) in 6-well plates and incubated overnight. Cells were treated with the compound 2384 of the invention, with CR8 (a known molecular glue degrader that depletes CycK) or with the proteasome inhibitor MG-132 (MedChemExpress, Cat HY-13259) for 2h. RNA was extracted using the QIAamp RNeasy Mini Kit (cat#74106, Qiagen) according to the manufacturer's protocol. Reverse transcription was performed using SuperScripr™ IV reverse transcriptase (cat#LT02241, Invitrogen). Quantitative PCR was performed using a No ROX Sybr Master Mix in the LightCycler 480 Real-Time PCR system (Roche Life Science).
Cyclin K forward ([…]) and reverse ([…]) primers were purchased from Eurogentec. Gene expression was normalized using ribosomal 28S as the housekeeping gene.

N[C@H]1CC[C@H](Nc2nc(NCc3ccc(-c4ccccn4)cc3)n3ncc(Br)c3n2)CC1 [Compound 2384]
inhibition of kinase activity (340 protein kinases): more than 90% | efflux ratio at 1 h, 5 µM (BCRP; read-out: Efflux ratio B/A): 9.24 | Papp A→B at 1 h, 5 µM (BCRP; 5µM, 60 min, read-out: Papp A (donor) to B (acceptor)): 5.49 ×10⁻⁶ cm/s | Papp B→A at 1 h, 5 µM (BCRP; 5µM, 60 min, read-out: Papp B (acceptor) to A (donor)): 50.7 ×10⁻⁶ cm/s | CycK mRNA level (CycK mRNA): not at the CycK mRNA level
